Columns and labels:
[1] = Storage stability of crystalline Form 1, XRPD spectrum before and after storage; type: physicochemical
Description: X-Ray Powder Diffraction patterns were collected on a Bruker D8 diffractometer using Cu Kα radiation (40 kV, 40 mA), θ-2θ goniometer, and divergence of V4 and receiving slits, a Ge monochromator and a Lynxeye detector. Samples were run under ambient conditions as flat plate specimens. The sample was gently packed into a cavity cut into polished, zero-background (510) silicon wafer. The parameters of the data collection are: • Angular range: 2 to 42°2θ • Step size: 0.05°2θ • Collection time: 0.5 s/step
A sample of the steroid-like compound in crystalline Form 1 was stored for 7 days at 40° C. and 75% relative humidity. After that time an XRPD spectrum was obtained and compared to the XRPD spectrum of the sample before the storage at the elevated temperature and humidity. […] Similarly, another sample of the steroid-like compound in crystalline Form 1 was stored for 1 year at room temperature (21° C. and uncontrolled relative humidity).

[2] = Conversion of substantially amorphous material to crystalline Form 1 at elevated temperature and/or humidity; type: physicochemical
Source text: In certain embodiments, a substantially amorphous form of the steroid-like compound contemplated for use herein can be converted into crystalline Form 1 by subjecting said amorphous material to elevated temperatures and/or elevated humidity sufficient to promote the desired conversion.
As used herein, “substantial portion thereof” refers to the major portion of the sample in question, i.e., greater than 50% of the sample, undergoes conversion from the amorphous form thereof to crystalline Form 1; in some embodiments, greater than 60% of the sample undergoes conversion from the amorphous form thereof to crystalline Form 1; in some embodiments, greater than 70% of the sample undergoes conversion from the amorphous form thereof to crystalline Form 1; in some embodiments, greater than 80% of the sample undergoes conversion from the amorphous form thereof to crystalline Form 1; in some embodiments, greater than 90% of the sample undergoes conversion from the amorphous form thereof to crystalline Form 1.

In the case of `C[C@]12CCC(=O)C=C1CC[C@@H]1[C@@H]2[C@@H](O)C[C@@]2(C)[C@H]1CC[C@]2(OC(=O)c1ccccc1)C(=O)CO` [crystalline Form 1], the “change in the XRPD spectrum after storage” value ([1]; stored for 1 year at room temperature (21° C. and uncontrolled relative humidity)) is reported as “no change” and the “change in the XRPD spectrum after storage” value ([1]; stored for 7 days at 40° C. and 75% relative humidity) is reported as “No noticeable change”.
In the case of `C[C@]12CCC(=O)C=C1CC[C@@H]1[C@@H]2[C@@H](O)C[C@@]2(C)[C@H]1CC[C@]2(OC(=O)c1ccccc1)C(=O)CO` [substantially amorphous form], the “solid form conversion on exposure” value ([2]; 75% relative humidity at about 40° C. for about 1 week) is reported as “conversion of a substantial portion thereof to crystalline Form 1”, the “solid form conversion on exposure” value ([2]; 97% relative humidity at room temperature (about 25° C.) for about 2 weeks) is reported as “conversion of a substantial portion thereof to crystalline Form 1” and the “solid form conversion on exposure” value ([2]; temperature higher than about 110° C. for at least about 1 hour) is reported as “conversion of a substantial portion thereof to crystalline Form 1”.
